A word on the EC50: it is the midpoint of the concentration-response curve.

Values after ≈ are worked out from the molar mass of the structure shown. Active and inactive are the calls of the source. The rule behind the calls is not given here.

The subject of assay [1] is Monilinia laxa. Description: Fungicidal activity against Monilinia laxa isolate MLK10 assessed as reduction in mycelial growth rate at 1 to 10 ug/ml at 31 degC after 5 days. The format is functional, organism-based.
In assay [2] the test system is Monilinia laxa. In words: Fungicidal activity against Monilinia laxa isolate MLK7 assessed as reduction in mycelial growth rate at 1 to 10 ug/ml at 31 degC after 5 days. The format is functional, organism-based.
Assay [3] relates to Monilinia laxa. Description: Fungicidal activity against Monilinia laxa isolate MLKS1 assessed as reduction in mycelial growth rate at 1 to 10 ug/ml at 31 degC after 5 days. The assay is classed as functional, organism-based.
The test system of assay [4] is Monilinia laxa. Description: Fungicidal activity against Monilinia laxa isolate MLG6 assessed as reduction in mycelial growth rate at 1 to 10 ug/ml at 31 degC after 5 days. The format is functional, organism-based.
For assay [5], the system named is Monilinia laxa. In words: Fungicidal activity against Monilinia laxa isolate MLG4 assessed as reduction in mycelial growth rate at 1 to 10 ug/ml at 31 degC after 5 days. The format is functional, organism-based.
Assay [6] concerns Monilinia laxa. Description: Fungicidal activity against Monilinia laxa isolate MLC4 assessed as reduction in mycelial growth rate at 1 to 10 ug/ml at 31 degC after 5 days. The assay is classed as functional, organism-based.
Assay [7] deals with Monilinia laxa. In words: Fungicidal activity against Monilinia laxa isolate MLC2 assessed as reduction in mycelial growth rate at 1 to 10 ug/ml at 31 degC after 5 days. The assay is classed as functional, organism-based.
The test system of assay [8] is Monilinia laxa. Description: Fungicidal activity against Monilinia laxa isolate MLBO7 assessed as reduction in mycelial growth rate at 1 to 10 ug/ml at 31 degC after 5 days. The assay is classed as functional, organism-based.
For assay [9], the system named is Monilinia laxa. In words: Fungicidal activity against Monilinia laxa isolate MLBO5 assessed as mean number of conidia produced in the colony at 25 degC after 12 days by haemocytometer. The assay is classed as functional.
Assay [10] deals with Monilinia laxa. Description: Fungicidal activity against Monilinia laxa isolate KX4 assessed as reduction in mycelial growth rate at 1 to 10 ug/ml at 28 degC after 8 days. The assay is classed as functional, organism-based.
Assay [11] deals with Monilinia laxa. Description: Fungicidal activity against Monilinia laxa isolate MLK4 assessed as reduction in mycelial growth rate at 1 to 10 ug/ml at 28 degC after 8 days. The format is functional, organism-based.
Assay [12] deals with Monilinia laxa. In words: Fungicidal activity against Monilinia laxa isolate MLC1 assessed as reduction in mycelial growth rate at 25 degC after 4 days. The format is functional, organism-based. The conditions noted are these: isolate MLC1, 96 h.
The test system of assay [13] is Monilinia laxa. In words: Fungicidal activity against Monilinia laxa isolate MLP7 assessed as reduction in mycelial growth rate at 1 to 10 ug/ml at 25 to 28 degC. The format is functional, organism-based.
The test system of assay [14] is Monilinia laxa. Description: Fungicidal activity against Monilinia laxa isolate MLK12 assessed as reduction in mycelial growth rate at 1 to 10 ug/ml at 25 to 28 degC. The assay is classed as functional, organism-based.
The test system of assay [15] is Monilinia laxa. In words: Fungicidal activity against Monilinia laxa isolate MLC2 assessed as reduction in mycelial growth rate at 1 to 10 ug/ml at 25 to 28 degC. The format is functional, organism-based.
Assay [16] has as its system Monilinia laxa. Description: Fungicidal activity against Monilinia laxa isolate MLA1 assessed as mycelial growth at 1 ug/ml at 25 degC after 4 days. The format is functional.
The test system of assay [17] is Monilinia laxa. Description: Fungicidal activity against Monilinia laxa isolate MLBO5 assessed as mycelial growth at 1 ug/ml at 25 degC after 4 days. The format is functional.
In assay [18] the test system is Monilinia laxa. In words: Fungicidal activity against Monilinia laxa isolate MLP7 assessed as reduction in mycelial growth rate at 1 to 10 ug/ml at 31 degC after 5 days. The assay is classed as functional, organism-based.
The test system of assay [19] is Monilinia laxa. Description: Fungicidal activity against Monilinia laxa isolate MLBO4 assessed as reduction in mycelial growth rate at 1 to 10 ug/ml at 31 degC after 5 days. The assay is classed as functional, organism-based.
Assay [20] relates to Monilinia laxa. In words: Fungicidal activity against Monilinia laxa isolate MLBO3 assessed as reduction in mycelial growth rate at 1 to 10 ug/ml at 31 degC after 5 days. The assay is classed as functional, organism-based.
The test system of assay [21] is Monilinia laxa. In words: Fungicidal activity against Monilinia laxa isolate MLX3 assessed as reduction in mycelial growth rate at 1 to 10 ug/ml at 31 degC after 5 days. The format is functional, organism-based.
For assay [22], the system named is Monilinia laxa. Description: Fungicidal activity against Monilinia laxa isolate MLP7 assessed as reduction in mycelial growth rate at 25 degC after 4 days. The assay is classed as functional, organism-based. The conditions noted are these: isolate MLP7, 96 h.

Turning to `COC(=O)Nc1nc2ccccc2[nH]1` [CARBENDAZIM], the inhibition entry in assay [1], in assay [2], in assay [3], in assay [4], in assay [5] and in [6] was “Active” throughout. The inhibition entry in assay [7], in assay [8], in assay [18], in assay [19], in assay [20] and in assay [21] was “Active” each time. The Activity is 3.92 /cm2 in assay [9], 0% in assay [16] and 0% in assay [17]. For the same molecule, the inhibition entry in [10], in assay [11], in assay [13], in [14] and in assay [15] was “inactive” each time. The concentration giving a half-maximal response (EC50) is 0.03 µg/mL (≈ 0.157 µM) in assay [12] and greater than 50 µg/mL in [22].

Values taken from ChEMBL document CHEMBL3046319, “PCR-RFLP detection of the E198A mutation conferring resistance to benzimidazoles in field isolates of Monilinia laxa from Greece” (Crop Prot, 2012).
